The structures appear in SMILES notation.

Assay [1] has as its system human prostate cancer LNCaP cells. Briefly: Cytotoxic action on LNCaP cells (WST-8, 96 hr). To be noted: 96 hr culture. In kind it is cell-based. How it is done: The cytotoxic action of the compound of the present invention against human cancer cells was evaluated in vitro. In this experiment, (+)-JQ1 (Nature volume 468, pages 1067-1073 (23 Dec. 2010)) known to have an inhibitory activity on the binding of BRD4 protein and a ligand therefor was used as a positive control drug. Respective cells were suspended in 10% FBS/RPMI1640, seeded in a 96 well plate and cultured at 5% CO2, 37° C. overnight. A test compound dissolved in DMSO was diluted with 10% FBS/RPMI1640 and added and the cells were further cultured for 96 hr. After culturing, the viable cell number was measured using a cell number measurement WST-8 kit (Kishida Chemical Co., Ltd.). As a control, the measurement was performed under conditions free of the test compound. The cytotoxic activity of the compound of the present invention against human prostate cancer LNCaP cells is shown in IC50 value in Table 1. The IC50 value is a concentration of the compound showing 50% cell survival rate when the cell survival rate thereof under compound untreated condition is 100%. It was calculated from the straight line connecting the cell survival rate at two points enclosing the 50% cell survival rate and the compound concentration. In addition, the cytotoxic activity against respective cancer cells of human acute myeloid leukemia MV-4-11 cell, human chronic myeloid leukemia K562 cell, human multiple myeloma MM.1S cell, human diffuse large B-cell lymphoma SU-DHL-6 cell, human T-cell leukemia Jurkat cells, human Burkitt lymphoma Raji cell, human castration-resistant prostate cancer PC-3 cell, human AR-V7 positive castration-resistant prostate cancer 22Rv1 cell, human ovarian cancer A2780 cell, human cisplatin-resistant ovarian cancer SK-OV-03 cell, human bladder cancer 5637 cell, human breast cancer ZR-75-1 cell, human triple negative breast cancer MDA-MB-231 cell, human uterus cervix cancer HeLa cell, human uterine sarcoma MES-SA cell, human stomach cancer SNU-16 cell, human non-small cell lung cancer NCI-H2126 cell, human EGFRT790M mutation-positive non-small cell lung cancer NCI-H1975 cell, human small cell lung cancer NCI-H82 cell, human large cell lung cancer NCI-H460 cell, human colon cancer HCT116 cell, human glioma U-87 MG cell, human pancreatic cancer BxPC-3 cell, human liver cancer HLF cell, human bile duct cancer HuCCT1 cell, human renal cell cancer 786-O cell, and human fibrosarcoma HT1080 cell is shown in IC50 value in Table 2.
(Tetrazolium assays rely on reduction of a dye to a coloured formazan, in cell work by metabolically active cells.)

Another assay has as its target BRD4 protein (Homo sapiens (Human), UniProt O60885). Description: BRD4 protein degradation inducing action in LNCaP cells (immunofluorescence, 6 hr). In kind it is cell-based. To be noted: anti-BRD4 fluorescence intensity. How it is done:
The degradation inducing action of the compound of the present invention on BRD4 proteins in cancer cells was evaluated in vitro using human prostate cancer LNCaP cells. LNCaP cells were suspended in 10% FBS/RPMI1640, seeded in a 96 well Cell carrier plate (Perkin Elmer) and cultured at 5% CO2, 37° C. overnight. A test compound dissolved in DMSO was diluted with 10% FBS/RPMI1640 and added and the cells were further cultured for 6 hr. After culturing, the cells were immobilized with 4% para-formaldehyde/PBS and further subjected to a permeation treatment with 0.25% Triton X-100/PBS. Thereafter, the cells were blocked with 10% BSA/PBS, Anti-BRD4 (Sigma-Aldrich) solution was added and the cells were incubated at 4° C. overnight. Furthermore, Goat anti-Rabbit IgG(H+L) Cross-Adsorbed Secondary Antibody, Alexa Fluor 546 (Thermo Fisher Scientific) solution, 0.5 μg/mL Hoechst 33342 (Sigma-Aldrich), and 14 μM Acti-Stain 555 Fluorescent Phalloidin (Cytoskeleton) were added. After incubation for 1 hr, BRD4 protein amount was measured by Operetta (Perkin Elmer) as fluorescence intensity (excitation: 560 nm, emission: 572 nm). The BRD4 protein degradation inducing activity of the compound of the present invention in LNCaP cells is shown in DC50 value in Table 3. The DC50 value is a concentration of the compound showing 50% fluorescence intensity when the fluorescence intensity thereof under compound untreated condition is 100%. It was calculated from the straight line connecting the fluorescence intensity at two points enclosing the 50% fluorescence intensity and the compound concentration.

As for `COC(=O)C[C@@H]1N=C(c2ccc(-c3ccc(C(=O)NCc4ccc(S(=O)(=O)Nc5ccc(OC)c6c(C#N)c[nH]c56)cc4)cc3)cc2)c2c(sc(C)c2C)-n2c(C)nnc21` [Example 15, methyl [(6S)-4-{4′-[({4-[(3-cyano-4-methoxy-1H-indol-7-yl)sulfamoyl]phenyl}methyl)carbamoyl][1,1′-biphenyl]-4-yl}-2,3,9-trimethyl-6H-thieno[3,2-f][1,2,4]triazolo[4,3-a][1,4]diazepin-6-yl]acetate], in assay [1], half-maximal inhibition (IC50) was put at 0.28 nM. Further, the DC50 (in general, the concentration giving 50% degradation) on BRD4 protein is 0.22 nM.

On to `CCc1ccc(NS(=O)(=O)c2ccc(CNC(=O)c3ccc(-c4ccc(C5=N[C@@H](CC(=O)OC)c6nnc(C)n6-c6sc(C)c(C)c65)cc4)c(Cl)c3)cc2)c2[nH]cc(C#N)c12` [Example Compound 116, methyl [(6S)-4-{2′-chloro-4′-[({4-[(3-cyano-4-ethyl-1H-indol-7-yl)sulfamoyl]phenyl}methyl)carbamoyl][1,1′-biphenyl]-4-yl}-2,3,9-trimethyl-6H-thieno[3,2-f][1,2,4]triazolo[4,3-a][1,4]diazepin-6-yl]acetate], for which inhibition in assay [1] was half-maximal at 0.65 nM (IC50). The DC50 on BRD4 protein was 0.42 nM.

In the case of `COC(=O)C[C@@H]1N=C(c2ccc(-c3ccc(C(=O)NCc4ccc(S(=O)(=O)Nc5ccc(C)c6c(C#N)c[nH]c56)c(F)c4)cc3)cc2)c2c(sc(C)c2C)-n2c(C)nnc21` [Example 25, methyl [(6S)-4-{4′-[({4-[(3-cyano-4-methyl-1H-indol-7-yl)sulfamoyl]-3-fluorophenyl}methyl)carbamoyl][1,1′-biphenyl]-4-yl}-2,3,9-trimethyl-6H-thieno[3,2-f][1,2,4]triazolo[4,3-a][1,4]diazepin-6-yl]acetate], the concentration for half-maximal inhibition (IC50) – broadly, the midpoint of a concentration-inhibition curve – in assay [1] worked out at 0.24 nM. On BRD4 protein, this molecule displayed a DC50 of 0.16 nM.

In assay [1], `COC(=O)C[C@@H]1N=C(c2ccc(-c3ccc(C(=O)NCCc4ccc(S(=O)(=O)Nc5ccc(C)c6c(C#N)c[nH]c56)cc4)cc3Cl)cc2)c2c(sc(C)c2C)-n2c(C)nnc21` [Example 48, methyl [(6S)-4-{2′-chloro-4′-[(2-{4-[(3-cyano-4-methyl-1H-indol-7-yl)sulfamoyl]phenyl}ethyl)carbamoyl][1,1′-biphenyl]-4-yl}-2,3,9-trimethyl-6H-thieno[3,2-f][1,2,4]triazolo[4,3-a][1,4]diazepin-6-yl]acetate] returned a 50% inhibitory concentration (IC50) of 0.49 nM. The molecule also displayed a DC50 on BRD4 protein of 0.3 nM.

In assay [1], `CCc1ccc(NS(=O)(=O)c2ccc(CNC(=O)c3ccc(-c4ccc(C5=N[C@@H](CC(=O)OC)c6nnc(C)n6-c6sc(C)c(C)c65)cc4)cc3C)cc2)c2[nH]cc(C#N)c12` [Example Compound 114, methyl [(6S)-4-{4′-[({4-[(3-cyano-4-ethyl-1H-indol-7-yl)sulfamoyl]phenyl}methyl)carbamoyl]-3′-methyl[1,1′-biphenyl]-4-yl}-2,3,9-trimethyl-6H-thieno[3,2-f][1,2,4]triazolo[4,3-a][1,4]diazepin-6-yl]acetate] returned a half-maximal inhibitory concentration (IC50) of 0.34 nM. The molecule also came in with a DC50 on BRD4 protein of 0.28 nM.

With `CCCOC(=O)C[C@@H]1N=C(c2ccc(-c3ccc(C(=O)NCc4ccc(S(=O)(=O)Nc5ccc(C)c6c(C#N)c[nH]c56)cc4)cc3)cc2)c2c(sc(C)c2C)-n2c(C)nnc21` [Example Compound 130, n-propyl [(6S)-4-{4′-[({4-[(3-cyano-4-methyl-1H-indol-7-yl)sulfamoyl]phenyl}methyl)carbamoyl][1,1′-biphenyl]-4-yl}-2,3,9-trimethyl-6H-thieno[3,2-f][1,2,4]triazolo[4,3-a][1,4]diazepin-6-yl]acetate], in assay [1], the IC50 worked out at 0.05 nM. This molecule came in with a DC50 at BRD4 protein of 0.028 nM.

`COC(=O)C[C@@H]1N=C(c2ccc(-c3ccc(C(=O)NCc4ccc(S(=O)(=O)Nc5ccc(C)c6c(C#N)c[nH]c56)cc4)s3)cc2)c2c(sc(C)c2C)-n2c(C)nnc21` [Example 59, methyl [(6S)-4-(4-{5-[({4-[(3-cyano-4-methyl-1H-indol-7-yl)sulfamoyl]phenyl}methyl)carbamoyl]thiophen-2-yl}phenyl)-2,3,9-trimethyl-6H-thieno[3,2-f][1,2,4]triazolo[4,3-a][1,4]diazepin-6-yl]acetate] returned a concentration for half-maximal inhibition (IC50) in assay [1] of 0.23 nM. The same molecule had a 50% degradation concentration (DC50) on BRD4 protein of 0.22 nM.

In turn, `COC(=O)C[C@@H]1N=C(c2ccc(-c3cc(C)c(C(=O)N[C@H](C)c4ccc(S(=O)(=O)Nc5ccc(C)c6c(C#N)c[nH]c56)cc4)cc3F)cc2)c2c(sc(C)c2C)-n2c(C)nnc21` [Example 98, methyl [(6S)-4-(4′-{[(1R)-1-{4-[(3-cyano-4-methyl-1H-indol-7-yl)sulfamoyl]phenyl}ethyl]carbamoyl}-2′-fluoro-5′-methyl[1,1′-biphenyl]-4-yl)-2,3,9-trimethyl-6H-thieno[3,2-f][1,2,4]triazolo[4,3-a][1,4]diazepin-6-yl]acetate] displayed a half-maximal inhibitory concentration (IC50) in assay [1] of 0.22 nM. In addition, on BRD4 protein, the 50% degradation concentration (DC50) was 0.098 nM.

In assay [1], `Cc1sc2c(c1C)C(c1ccc(-c3ccc(C(=O)NCc4ccc(S(=O)(=O)Nc5ccc(C)c6c(C#N)c[nH]c56)cc4)cc3)cc1)=N[C@@H](CC#N)c1nnc(C)n1-2` [Example 73, N-({4-[(3-cyano-4-methyl-1H-indol-7-yl)sulfamoyl]phenyl}methyl)-4′-[(6S)-6-(cyanomethyl)-2,3,9-trimethyl-6H-thieno[3,2-f][1,2,4]triazolo[4,3-a][1,4]diazepin-4-yl][1,1-biphenyl]-4-carboxamide] gave an IC50 of 1.7 nM. In addition, half-maximal degradation at BRD4 protein (DC50) was put at 0.75 nM.

Molecule `COC(=O)C[C@@H]1N=C(c2ccc(-c3ccc4cc(C(=O)NCc5ccc(S(=O)(=O)Nc6ccc(C)c7c(C#N)c[nH]c67)cc5)sc4c3)cc2)c2c(sc(C)c2C)-n2c(C)nnc21` [Example 62, methyl [(6S)-4-(4-{2-[({4-[(3-cyano-4-methyl-1H-indol-7-yl)sulfamoyl]phenyl}methyl)carbamoyl]-1-benzothiophen-6-yl}phenyl)-2,3,9-trimethyl-6H-thieno[3,2-f][1,2,4]triazolo[4,3-a][1,4]diazepin-6-yl]acetate] had an IC50 in assay [1] of 0.97 nM. Also, the 50% degradation concentration (DC50) on BRD4 protein amounted to 0.64 nM.

`COC(=O)C[C@@H]1N=C(c2ccc(-c3cc(F)c(C(=O)N[C@H](C)c4ccc(S(=O)(=O)Nc5ccc(C)c6c(C#N)c[nH]c56)cc4)cc3F)cc2)c2c(sc(C)c2C)-n2c(C)nnc21` [Example 97, methyl [(6S)-4-(4′-{[(1R)-1-{4-[(3-cyano-4-methyl-1H-indol-7-yl)sulfamoyl]phenyl}ethyl]carbamoyl}-2′,5′-difluoro[1,1′-biphenyl]-4-yl)-2,3,9-trimethyl-6H-thieno[3,2-f][1,2,4]triazolo[4,3-a][1,4]diazepin-6-yl]acetate] showed an IC50 in assay [1] of 0.12 nM. This molecule returned a DC50 at BRD4 protein of 0.064 nM.

As to `Cc1sc2c(c1C)C(c1ccc(-c3ccc(C(=O)NCc4ccc(S(=O)(=O)Nc5ccc(C)c6c(C#N)c[nH]c56)cc4)cc3)cc1)=N[C@@H](CC(=O)OC(C)(C)C)c1nnc(C)n1-2` [Example 63, t-butyl [(6S)-4-{4′-[({4-[(3-cyano-4-methyl-1H-indol-7-yl)sulfamoyl]phenyl}methyl)carbamoyl][1,1′-biphenyl]-4-yl}-2,3,9-trimethyl-6H-thieno[3,2-f][1,2,4]triazolo[4,3-a][1,4]diazepin-6-yl]acetate], in assay [1], the IC50 is 0.45 nM. Moreover, the half-maximal degradation concentration (DC50) at BRD4 protein was 0.23 nM.

In the case of `COc1ccc2c(c1)C(c1ccc(-c3ccc(C(=O)NCc4ccc(S(=O)(=O)Nc5ccc(C)c6c(C#N)c[nH]c56)cc4)cc3)cc1)=N[C@@H](CC(=O)OC(C)(C)C)c1nnc(C)n1-2` [Example Compound 132, t-butyl [(4S)-6-{4′-[({4-[(3-cyano-4-methyl-1H-indol-7-yl)sulfamoyl]phenyl}methyl)carbamoyl][1,1′-biphenyl]-4-yl}-8-methoxy-1-methyl-4H-[1,2,4]triazolo[4,3-a][1,4]benzodiazepin-4-yl]acetate], the half-inhibitory concentration (IC50) in assay [1] came to 0.21 nM. The molecule further returned a DC50 at BRD4 protein of 0.13 nM.

For the origin of these results see US11890288B2, “Sulfonamide or sulfinamide compound having effect of inducing BRD4 protein degradation and pharmaceutical use thereof” (MITSUBISHI TANABE PHARMA CORPORATION, priority 2020, dated 2024).
